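GI50: concentration for 50% inhibition of growth. TGI: total growth inhibition.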
Key:
Assay in all cases: NCI tumour cell line growth inhibition, 384-well format
RPMI-8226 leukemia = system: RPMI-8226 leukemia
ACHN renal = system: ACHN renal
LOX IMVI melanoma = system: LOX IMVI melanoma
HCC-2998 colon = system: HCC-2998 colon
SNB-19 CNS = system: SNB-19 CNS
CCRF-CEM leukemia = system: CCRF-CEM leukemia
NCI-H460 NSCLC = system: NCI-H460 NSCLC
786-0 renal = system: 786-0 renal
DU-145 prostate = system: DU-145 prostate
NCI-H226 lung = system: NCI-H226 lung
SK-MEL-2 melanoma = system: SK-MEL-2 melanoma
SK-OV-3 ovarian = system: SK-OV-3 ovarian
MDA-MB-435 melanoma = system: MDA-MB-435 melanoma
HOP-92 NSCLC = system: HOP-92 NSCLC
HCT-15 colon = system: HCT-15 colon
BT-549 breast = system: BT-549 breast
SNB-75 CNS = system: SNB-75 CNS
NCI-H322M lung = system: NCI-H322M lung
TK-10 renal = system: TK-10 renal
M14 melanoma = system: M14 melanoma
HS 578T breast = system: HS 578T breast
HOP-62 NSCLC = system: HOP-62 NSCLC
NCI-H23 lung = system: NCI-H23 lung
SF-268 CNS = system: SF-268 CNS
NCI/ADR-RES ovarian = system: NCI/ADR-RES ovarian
U251 glioblastoma = system: U251 glioblastoma
SF-295 CNS = system: SF-295 CNS
IGROV1 ovarian = system: IGROV1 ovarian
MDA-MB-468 breast = system: MDA-MB-468 breast
PC-3 prostate = system: PC-3 prostate
MCF7 breast = system: MCF7 breast
A498 renal = system: A498 renal
SW-620 colon = system: SW-620 colon
SF-539 CNS = system: SF-539 CNS
CAKI-1 renal = system: CAKI-1 renal
MOLT-4 leukemia = system: MOLT-4 leukemia
COLO 205 colon = system: COLO 205 colon
KM12 colon = system: KM12 colon
UACC-62 melanoma = system: UACC-62 melanoma
OVCAR-8 ovarian = system: OVCAR-8 ovarian
HT29 colon = system: HT29 colon
NCI-H522 lung = system: NCI-H522 lung
MALME-3M melanoma = system: MALME-3M melanoma
MDA-MB-231 breast = system: MDA-MB-231 breast
RXF 393 renal = system: RXF 393 renal
K-562 leukemia = system: K-562 leukemia
SR leukemia = system: SR leukemia

`CC[C@H](Nc1ncnc2nc[nH]c12)c1nc2cccc(F)c2c(=O)n1-c1ccccc1` showed a GI50 (RPMI-8226 leukemia) of 16.7 µM, a TGI (RPMI-8226 leukemia) of 36.5 µM and a GI50 (ACHN renal) of 13.2 µM. For the same compound, the TGI (ACHN renal) was > 100 µM, the GI50 (LOX IMVI melanoma) was 43.2 µM and the TGI (LOX IMVI melanoma) was > 100 µM. The GI50 (HCC-2998 colon) was 36.7 µM, the TGI (HCC-2998 colon) was > 93.5 µM and the GI50 (SNB-19 CNS) was > 74.4 µM. The TGI (SNB-19 CNS) was > 100 µM, the GI50 (CCRF-CEM leukemia) was 5.93 µM and the TGI (CCRF-CEM leukemia) was 25.8 µM. The GI50 (NCI-H460 NSCLC) was 38 µM, the TGI (NCI-H460 NSCLC) was > 100 µM and the GI50 ([…]-0 renal) was 10.6 µM. For the same compound, the TGI (786-0 renal) was > 100 µM, the GI50 (DU-145 prostate) was 45 µM and the TGI (DU-145 prostate) was > 100 µM. The GI50 (NCI-H226 lung) was 37 µM, the TGI (NCI-H226 lung) was > 100 µM and the GI50 (SK-MEL-2 melanoma) was 24 µM. The TGI (SK-MEL-2 melanoma) was 70.8 µM, the GI50 (SK-OV-3 ovarian) was 30.6 µM and the TGI (SK-OV-3 ovarian) was > 83.3 µM. It also gave a GI50 (MDA-MB-435 melanoma) of 25.6 µM, a TGI (MDA-MB-435 melanoma) of 57.1 µM and a GI50 (HOP-92 NSCLC) of 12.2 µM. For the same compound, the TGI (HOP-92 NSCLC) was 98.5 µM, the GI50 (HCT-15 colon) was 30.1 µM and the TGI (HCT-15 colon) was > 100 µM. For the same compound, the GI50 (BT-549 breast) was 4.22 µM, the TGI (BT-549 breast) was 48.1 µM and the GI50 (SNB-75 CNS) was 0.783 µM. For the same compound, the TGI (SNB-75 CNS) was 6.15 µM, the GI50 (NCI-H322M lung) was 34.7 µM and the TGI (NCI-H322M lung) was > 100 µM. The GI50 (TK-10 renal) was > 38.3 µM, the TGI (TK-10 renal) was > 94.5 µM and the GI50 (M14 melanoma) was > 69 µM. The TGI (M14 melanoma) was > 100 µM, the GI50 (HS 578T breast) was 12.5 µM and the TGI (HS 578T breast) was 50.3 µM. For the same compound, the GI50 (HOP-62 NSCLC) was > 59.5 µM, the TGI (HOP-62 NSCLC) was > 100 µM and the GI50 (NCI-H23 lung) was 38.2 µM. The TGI (NCI-H23 lung) was > 100 µM, the GI50 (SF-268 CNS) was 25.6 µM and the TGI (SF-268 CNS) was > 100 µM. For the same compound, the GI50 (NCI/ADR-RES ovarian) was 54.7 µM, the TGI (NCI/ADR-RES ovarian) was > 100 µM and the GI50 (U251 glioblastoma) was > 71.4 µM. The TGI (U251 glioblastoma) was > 100 µM, the GI50 (SF-295 CNS) was 23.1 µM and the TGI (SF-295 CNS) was > 76.3 µM. It also gave a GI50 (IGROV1 ovarian) of 4.31 µM, a TGI (IGROV1 ovarian) of 14.9 µM and a GI50 (MDA-MB-468 breast) of 4.58 µM. For the same compound, the TGI (MDA-MB-468 breast) was 15.9 µM, the GI50 (PC-3 prostate) was 6.18 µM and the TGI (PC-3 prostate) was > 100 µM. The GI50 (MCF7 breast) was 7.96 µM, the TGI (MCF7 breast) was 69.5 µM and the GI50 (A498 renal) was 4.38 µM. For the same compound, the TGI (A498 renal) was 23 µM, the GI50 (SW-620 colon) was > 75.8 µM and the TGI (SW-620 colon) was > 100 µM. The GI50 (SF-539 CNS) was 33.2 µM, the TGI (SF-539 CNS) was > 100 µM and the GI50 (CAKI-1 renal) was 7.37 µM. The TGI (CAKI-1 renal) was > 67.4 µM, the GI50 (MOLT-4 leukemia) was 10 µM and the TGI (MOLT-4 leukemia) was 22.1 µM. For the same compound, the GI50 (COLO 205 colon) was > 67.3 µM, the TGI (COLO 205 colon) was > 100 µM and the GI50 (KM12 colon) was 24.2 µM. For the same compound, the TGI (KM12 colon) was > 100 µM, the GI50 (UACC-62 melanoma) was 19.4 µM and the TGI (UACC-62 melanoma) was > 100 µM. The GI50 (OVCAR-8 ovarian) was 50.3 µM, the TGI (OVCAR-8 ovarian) was > 100 µM and the GI50 (HT29 colon) was 58.2 µM. The TGI (HT29 colon) was > 100 µM, the GI50 (NCI-H522 lung) was 26.1 µM and the TGI (NCI-H522 lung) was > 100 µM. For the same compound, the GI50 (MALME-3M melanoma) was 20.8 µM, the TGI (MALME-3M melanoma) was > 89.1 µM and the GI50 (MDA-MB-231 breast) was 73.6 µM. The TGI (MDA-MB-231 breast) was > 100 µM, the GI50 (RXF 393 renal) was 1.4 µM and the TGI (RXF 393 renal) was 9.61 µM. For the same compound, the GI50 (K-562 leukemia) was 24 µM, the TGI (K-562 leukemia) was 82.9 µM and the GI50 (SR leukemia) was 16.2 µM. It also gave a TGI (SR leukemia) of 32.6 µM.
For `CC(C)Nc1cc(-c2c[nH]c(C(=O)N[C@H](CO)c3cccc(Cl)c3)c2)c(Cl)cn1`, the GI50 (RPMI-8226 leukemia) was 0.366 µM, the TGI (RPMI-8226 leukemia) was 1.88 µM and the GI50 (ACHN renal) was 2.95 µM. The TGI (ACHN renal) was 16.3 µM, the GI50 (LOX IMVI melanoma) was 0.184 µM and the TGI (LOX IMVI melanoma) was 0.883 µM. It also gave a GI50 (HCC-2998 colon) of 0.0896 µM, a TGI (HCC-2998 colon) of 0.309 µM and a GI50 (SNB-19 CNS) of 9.24 µM. For the same compound, the TGI (SNB-19 CNS) was 22.5 µM, the GI50 (CCRF-CEM leukemia) was 2.89 µM and the TGI (CCRF-CEM leukemia) was 12.5 µM. It also gave a GI50 (NCI-H460 NSCLC) of 0.758 µM, a TGI (NCI-H460 NSCLC) of 13.6 µM and a GI50 ([…]-0 renal) of 3.58 µM. For the same compound, the TGI (786-0 renal) was 17.1 µM, the GI50 (DU-145 prostate) was 9.92 µM and the TGI (DU-145 prostate) was 24.3 µM. For the same compound, the GI50 (NCI-H226 lung) was 1.34 µM, the TGI (NCI-H226 lung) was 16.6 µM and the GI50 (SK-MEL-2 melanoma) was 0.186 µM. For the same compound, the TGI (SK-MEL-2 melanoma) was 0.467 µM, the GI50 (SK-OV-3 ovarian) was 6.86 µM and the TGI (SK-OV-3 ovarian) was 19.6 µM. It also gave a GI50 (MDA-MB-435 melanoma) of 0.314 µM, a TGI (MDA-MB-435 melanoma) of 13.4 µM and a GI50 (HOP-92 NSCLC) of 0.445 µM. The TGI (HOP-92 NSCLC) was 2.13 µM, the GI50 (HCT-15 colon) was 4.5 µM and the TGI (HCT-15 colon) was 17.9 µM. The GI50 (BT-549 breast) was 3.37 µM, the TGI (BT-549 breast) was 15.4 µM and the GI50 (SNB-75 CNS) was 13.4 µM. For the same compound, the TGI (SNB-75 CNS) was 26.2 µM, the GI50 (NCI-H322M lung) was 2.88 µM and the TGI (NCI-H322M lung) was 19.4 µM. The GI50 (TK-10 renal) was 2.6 µM, the TGI (TK-10 renal) was 17.3 µM and the GI50 (M14 melanoma) was 0.0842 µM. For the same compound, the TGI (M14 melanoma) was 0.328 µM, the GI50 (HS 578T breast) was 10.5 µM and the TGI (HS 578T breast) was 22.3 µM. For the same compound, the GI50 (HOP-62 NSCLC) was 3.19 µM, the TGI (HOP-62 NSCLC) was 19.4 µM and the GI50 (NCI-H23 lung) was 0.132 µM. It also gave a TGI (NCI-H23 lung) of 4.12 µM, a GI50 (SF-268 CNS) of 11 µM and a TGI (SF-268 CNS) of 23 µM. The GI50 (NCI/ADR-RES ovarian) was 9.98 µM, the TGI (NCI/ADR-RES ovarian) was 22.2 µM and the GI50 (U251 glioblastoma) was 2 µM. For the same compound, the TGI (U251 glioblastoma) was 15.8 µM, the GI50 (SF-295 CNS) was 7.68 µM and the TGI (SF-295 CNS) was 20.2 µM. For the same compound, the GI50 (IGROV1 ovarian) was 0.496 µM, the TGI (IGROV1 ovarian) was 7.2 µM and the GI50 (MDA-MB-468 breast) was 6.13 µM. The TGI (MDA-MB-468 breast) was 16.1 µM, the GI50 (PC-3 prostate) was 7.81 µM and the TGI (PC-3 prostate) was 21.3 µM. The GI50 (MCF7 breast) was 3.72 µM, the TGI (MCF7 breast) was 15.9 µM and the GI50 (A498 renal) was 1.76 µM. It also gave a TGI (A498 renal) of 12.7 µM, a GI50 (SW-620 colon) of 0.13 µM and a TGI (SW-620 colon) of 1.82 µM. For the same compound, the GI50 (SF-539 CNS) was 4.36 µM, the TGI (SF-539 CNS) was 16.2 µM and the GI50 (CAKI-1 renal) was 1.04 µM. For the same compound, the TGI (CAKI-1 renal) was 16.5 µM, the GI50 (MOLT-4 leukemia) was 1.66 µM and the TGI (MOLT-4 leukemia) was 6.58 µM. For the same compound, the GI50 (COLO 205 colon) was 0.134 µM, the TGI (COLO 205 colon) was 1.07 µM and the GI50 (KM12 colon) was 0.547 µM. The TGI (KM12 colon) was 12.8 µM, the GI50 (UACC-62 melanoma) was 0.0563 µM and the TGI (UACC-62 melanoma) was 0.895 µM. The GI50 (OVCAR-8 ovarian) was 5.72 µM, the TGI (OVCAR-8 ovarian) was 19.5 µM and the GI50 (HT29 colon) was 0.289 µM. It also gave a TGI (HT29 colon) of 13.2 µM, a GI50 (NCI-H522 lung) of 1.8 µM and a TGI (NCI-H522 lung) of 13.2 µM. It also gave a GI50 (MALME-3M melanoma) of 0.0197 µM, a TGI (MALME-3M melanoma) of 0.076 µM and a GI50 (MDA-MB-231 breast) of 1.37 µM. For the same compound, the TGI (MDA-MB-231 breast) was 17.1 µM, the GI50 (RXF 393 renal) was 4.14 µM and the TGI (RXF 393 renal) was 16.5 µM. It also gave a GI50 (K-562 leukemia) of 1.45 µM, a TGI (K-562 leukemia) of 13.4 µM and a GI50 (SR leukemia) of 1.01 µM. For the same compound, the TGI (SR leukemia) was 2.21 µM.

From PubChem BioAssay (NCI)
